Laboratory results as given in PubChem BioAssay AID256 (DTP/NCI, 2004).
“And” between values parts separate entries of the source, which are not always exact repeats. Equal entries are not always repeated. Inconclusive results and toxic doses are left out. Rule for the calls: active = survival T/C of 150% or more; inactive = T/C below 125% in these data.

Test system: CD2F1 mice, L1210 leukemia ip, survival T/C
Assay: NCI In Vivo Anticancer Drug Screen. Data for tumor model L1210 Leukemia (intraperitoneal) in CD2F1 (CDF1) mice
Settings: higher = longer survival
Outline: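 Ratio T/C, where T is the treated-group value and C the vehicle-dosed control value, from mice implanted with a transplantable tumor.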

[1] = endpoint: mean survival time, dose: 50.0 mg/kg/injection, schedule: Q04DX002 (ip), vehicle: saline with Tween-80
[2] = endpoint: mean survival time, dose: 100.0 mg/kg/injection, schedule: Q04DX002 (ip), vehicle: saline with Tween-80
[3] = endpoint: mean survival time, dose: 200.0 mg/kg/injection, schedule: Q04DX002 (ip), vehicle: saline with Tween-80
[4] = endpoint: mean survival time, dose: 25.0 mg/kg/injection, schedule: Q04DX002 (ip), vehicle: saline with Tween-80
[5] = endpoint: mean survival time, dose: 100.0 mg/kg/injection, schedule: Q01DX001 (ip), vehicle: saline with Tween-80
[6] = endpoint: mean survival time, dose: 200.0 mg/kg/injection, schedule: Q01DX001 (ip), vehicle: saline with Tween-80
[7] = endpoint: mean survival time, dose: 100.0 mg/kg/injection, schedule: Q04DX003 (ip), vehicle: saline with Tween-80
[8] = endpoint: mean survival time, dose: 200.0 mg/kg/injection, schedule: Q04DX003 (ip), vehicle: saline with Tween-80
[9] = endpoint: mean survival time, dose: 100.0 mg/kg/injection, schedule: Q01DX009 (ip), vehicle: saline
[10] = endpoint: mean survival time, dose: 200.0 mg/kg/injection, schedule: Q01DX009 (ip), vehicle: saline
[11] = endpoint: mean survival time, dose: 400.0 mg/kg/injection, schedule: Q01DX009 (ip), vehicle: saline

Measured: T/C

COc1cc2c3c(cccc3c1)C(=O)N(CCN(C)C)C2=O
inactive: endpoint: mean survival time, dose: 5.0 mg/kg/injection, schedule: Q01DX009 (ip), vehicle: saline with Tween-80 98 % of control and 100 % of control | endpoint: mean survival time, dose: 10.0 mg/kg/injection, schedule: Q01DX009 (ip), vehicle: saline with Tween-80 98 % of control and 102 % of control | endpoint: mean survival time, dose: 20.0 mg/kg/injection, schedule: Q01DX009 (ip), vehicle: saline with Tween-80 97 % of control and 101 % of control | endpoint: mean survival time, dose: 40.0 mg/kg/injection, schedule: Q01DX009 (ip), vehicle: saline with Tween-80 100 % of control and 108 % of control | endpoint: mean survival time, dose: 80.0 mg/kg/injection, schedule: Q01DX009 (ip), vehicle: saline with Tween-80 103 % of control and 110 % of control | endpoint: mean survival time, dose: 160.0 mg/kg/injection, schedule: Q01DX009 (ip), vehicle: saline with Tween-80 106 % of control

COc1ccc(C(O)C#N)cc1O (configuration not stated)
inactive: endpoint: mean survival time, dose: 3.13 mg/kg/injection, schedule: Q01DX009 (ip), vehicle: saline 101 % of control | endpoint: mean survival time, dose: 6.25 mg/kg/injection, schedule: Q01DX009 (ip), vehicle: saline 103 % of control | endpoint: mean survival time, dose: 6.25 mg/kg/injection, schedule: Q04DX003 (ip), vehicle: saline 101 % of control | endpoint: mean survival time, dose: 12.5 mg/kg/injection, schedule: Q01DX009 (ip), vehicle: saline 101 % of control | endpoint: mean survival time, dose: 12.5 mg/kg/injection, schedule: Q04DX003 (ip), vehicle: saline 106 % of control

CNP1(N(C)C)=NP(NC)(N(C)C)=NP(NC)(N(C)C)=N1 (configuration not stated)
inactive: endpoint: mean survival time, dose: 100.0 mg/kg/injection, schedule: Q04DX003 (ip), vehicle: saline 98 % of control | endpoint: mean survival time, dose: 200.0 mg/kg/injection, schedule: Q04DX003 (ip), vehicle: saline 98 % of control

CC(C)(CCC(=O)O)C(=O)c1ccccc1
inactive: [1] 98 % of control | [2] 94 % of control | [3] 94 % of control

O=c1nc(/C=C(\O)c2ccccc2)ccn1C1OC(CO)C(O)C1O (configuration not stated)
inactive: endpoint: mean survival time, dose: 12.5 mg/kg/injection, schedule: Q01DX005 (ip), vehicle: distilled water + Tween-80 105 % of control | endpoint: mean survival time, dose: 25.0 mg/kg/injection, schedule: Q01DX005 (ip), vehicle: distilled water + Tween-80 94 % of control | endpoint: mean survival time, dose: 50.0 mg/kg/injection, schedule: Q01DX005 (ip), vehicle: distilled water + Tween-80 91 % of control | endpoint: mean survival time, dose: 100.0 mg/kg/injection, schedule: Q01DX005 (ip), vehicle: distilled water + Tween-80 94 % of control | endpoint: mean survival time, dose: 200.0 mg/kg/injection, schedule: Q01DX005 (ip), vehicle: distilled water + Tween-80 98 % of control

c1ccc(N(c2ccccn2)c2ccccn2)nc1
inactive: [4] 101 % of control | [1] 101 % of control | [2] 97 % of control | [3] 97 % of control

CN(C)C1c2cc(Br)ccc2-c2ccc(Br)cc21
inactive: endpoint: mean survival time, dose: 50.0 mg/kg/injection, schedule: Q01DX001 (ip), vehicle: carboxymethylcellulose (CMC) 101 % of control | endpoint: mean survival time, dose: 100.0 mg/kg/injection, schedule: Q01DX001 (ip), vehicle: carboxymethylcellulose (CMC) 101 % of control | endpoint: mean survival time, dose: 200.0 mg/kg/injection, schedule: Q01DX001 (ip), vehicle: carboxymethylcellulose (CMC) 104 % of control | endpoint: mean survival time, dose: 400.0 mg/kg/injection, schedule: Q01DX001 (ip), vehicle: carboxymethylcellulose (CMC) 104 % of control

CC(/C=C/C1OC(=O)C=CC1C)=C\C(C)C/C=C/C(C)=C/C(C)C(=O)C(C)C(O)C(C)C/C(C)=C/C(=O)O (configuration not stated)
inactive: endpoint: median survival time, dose: 9.0 micrograms/kg/injection, schedule: Q01DX009 (ip), vehicle: saline + alcohol 106 % of control | endpoint: median survival time, dose: 15.0 micrograms/kg/injection, schedule: Q01DX009 (ip), vehicle: saline + alcohol 119 % of control | endpoint: median survival time, dose: 18.0 micrograms/kg/injection, schedule: Q01DX005 (ip), vehicle: alcohol 110 % of control | endpoint: median survival time, dose: 18.0 micrograms/kg/injection, schedule: Q01DX005 (ip), vehicle: saline + alcohol 106 % of control | endpoint: median survival time, dose: 25.0 micrograms/kg/injection, schedule: Q01DX009 (ip), vehicle: saline + alcohol 117 % of control | endpoint: median survival time, dose: 30.0 micrograms/kg/injection, schedule: Q01DX005 (ip), vehicle: alcohol 110 % of control | endpoint: median survival time, dose: 30.0 micrograms/kg/injection, schedule: Q01DX005 (ip), vehicle: saline + alcohol 107 % of control | endpoint: median survival time, dose: 50.0 micrograms/kg/injection, schedule: Q01DX005 (ip), vehicle: alcohol 115 % of control | endpoint: median survival time, dose: 50.0 micrograms/kg/injection, schedule: Q01DX005 (ip), vehicle: saline + alcohol 108 % of control | endpoint: median survival time, dose: 83.33 micrograms/kg/injection, schedule: Q01DX005 (ip), vehicle: alcohol 115 % of control | endpoint: median survival time, dose: 83.33 micrograms/kg/injection, schedule: Q01DX005 (ip), vehicle: saline + alcohol 116 % of control | endpoint: median survival time, dose: 138.89 micrograms/kg/injection, schedule: Q01DX005 (ip), vehicle: alcohol 122 % of control | endpoint: median survival time, dose: 138.89 micrograms/kg/injection, schedule: Q01DX005 (ip), vehicle: saline + alcohol 111 % of control

COC(=O)C12CCc3ccoc3C1CCC1(C)C(C)=CCCC12 (configuration not stated)
inactive: endpoint: mean survival time, dose: 50.0 mg/kg/injection, schedule: Q04DX002 (ip), vehicle: other 115 % of control | endpoint: mean survival time, dose: 100.0 mg/kg/injection, schedule: Q04DX002 (ip), vehicle: other 107 % of control | endpoint: mean survival time, dose: 200.0 mg/kg/injection, schedule: Q04DX002 (ip), vehicle: other 107 % of control

[Cl][Pt+2][Cl].c1ccc(CC2CC[N-]CC2)cc1.c1ccc(CC2CC[N-]CC2)cc1
inactive: endpoint: mean survival time, dose: 50.0 mg/kg/injection, schedule: Q01DX001 (ip), vehicle: saline with Tween-80 96 % of control | [5] 96 % of control | [6] 90 % of control

CC(C)COP(=O)(OCC(C)C)OCC(C)C
inactive: [7] 100 % of control | [8] 92 % of control

CN(C)C(=O)c1cccc(COc2ccc([N+](=O)[O-])cc2Cl)c1
inactive: endpoint: mean survival time, dose: 100.0 mg/kg/injection, schedule: Q01DX009 (ip), vehicle: saline sonified 102 % of control | [7] 101 % of control | endpoint: mean survival time, dose: 200.0 mg/kg/injection, schedule: Q01DX009 (ip), vehicle: saline sonified 98 % of control | [8] 103 % of control | endpoint: mean survival time, dose: 400.0 mg/kg/injection, schedule: Q04DX003 (ip), vehicle: saline with Tween-80 95 % of control

NC(CSS(=O)(=O)O)=NCCCCN=C(N)CSS(=O)(=O)O
inactive: endpoint: mean survival time, dose: 6.25 mg/kg/injection, schedule: Q04DX002 (ip), vehicle: saline with Tween-80 103 % of control | endpoint: mean survival time, dose: 12.5 mg/kg/injection, schedule: Q04DX002 (ip), vehicle: saline with Tween-80 106 % of control | [4] 95 % of control

CC(=O)c1ccc(Cl)cc1Cl
inactive: endpoint: mean survival time, dose: 25.0 mg/kg/injection, schedule: Q01DX001 (ip), vehicle: other 104 % of control | endpoint: mean survival time, dose: 50.0 mg/kg/injection, schedule: Q01DX001 (ip), vehicle: other 102 % of control | endpoint: mean survival time, dose: 100.0 mg/kg/injection, schedule: Q01DX001 (ip), vehicle: other 95 % of control

COC(=O)N1CC=CCN1C(=O)OC
inactive: [9] 105 % of control | [10] 108 % of control | [11] 102 % of control

Cc1cccc(N=Cc2ccccc2O)c1
inactive: [5] 88 % of control | [6] 97 % of control

O=S(=O)(Cl)OC(CCl)C(OS(=O)(=O)Cl)C(OS(=O)(=O)Cl)C(CCl)OS(=O)(=O)Cl (configuration not stated)
inactive: endpoint: mean survival time, dose: 100.0 mg/kg/injection, schedule: Q01DX009 (ip), vehicle: saline with Tween-80 92 % of control | endpoint: mean survival time, dose: 200.0 mg/kg/injection, schedule: Q01DX009 (ip), vehicle: saline with Tween-80 100 % of control | endpoint: mean survival time, dose: 400.0 mg/kg/injection, schedule: Q01DX009 (ip), vehicle: saline with Tween-80 100 % of control

Cc1ncc(CO)c(CO)c1O
inactive: [9] 100 % of control | [10] 94 % of control | [11] 95 % of control
